In PubChem BioAssay (NCI):
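Briefly, cells in 96-well plates were exposed to five compound concentrations for 48 h, and endpoints were estimated by linear interpolation. The concentration for full growth arrest is given as TGI.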

Columns and labels:
Experiment in all cases: NCI tumour cell line growth inhibition, 48 h
HT29 colon = test system: HT29 colon
HL-60(TB) leukemia = test system: HL-60(TB) leukemia
MALME-3M melanoma = test system: MALME-3M melanoma
MDA-MB-231 breast = test system: MDA-MB-231 breast
UO-31 renal = test system: UO-31 renal
EKVX NSCLC = test system: EKVX NSCLC
SF-295 CNS = test system: SF-295 CNS
RPMI-8226 leukemia = test system: RPMI-8226 leukemia
IGROV1 ovarian = test system: IGROV1 ovarian
NCI/ADR-RES ovarian = test system: NCI/ADR-RES ovarian
A498 renal = test system: A498 renal
HCC-2998 colon = test system: HCC-2998 colon
LOX IMVI melanoma = test system: LOX IMVI melanoma
MDA-N = test system: MDA-N
SK-OV-3 ovarian = test system: SK-OV-3 ovarian
COLO 205 colon = test system: COLO 205 colon
HS 578T breast = test system: HS 578T breast
SF-268 CNS = test system: SF-268 CNS
786-0 renal = test system: 786-0 renal
HCT-15 colon = test system: HCT-15 colon
HOP-92 NSCLC = test system: HOP-92 NSCLC
SR leukemia = test system: SR leukemia
HCT-116 colon = test system: HCT-116 colon
SK-MEL-5 melanoma = test system: SK-MEL-5 melanoma
NCI-H226 lung = test system: NCI-H226 lung
OVCAR-8 ovarian = test system: OVCAR-8 ovarian
SN12C renal = test system: SN12C renal
SW-620 colon = test system: SW-620 colon
U251 CNS = test system: U251 CNS
M14 melanoma = test system: M14 melanoma
SNB-19 CNS = test system: SNB-19 CNS
HOP-62 NSCLC = test system: HOP-62 NSCLC
UACC-257 melanoma = test system: UACC-257 melanoma
OVCAR-5 ovarian = test system: OVCAR-5 ovarian
T-47D breast = test system: T-47D breast
ACHN renal = test system: ACHN renal
BT-549 breast = test system: BT-549 breast
DU-145 prostate = test system: DU-145 prostate
SK-MEL-28 melanoma = test system: SK-MEL-28 melanoma
MOLT-4 leukemia = test system: MOLT-4 leukemia
UACC-62 melanoma = test system: UACC-62 melanoma
NCI-H460 lung = test system: NCI-H460 lung
RXF 393 renal = test system: RXF 393 renal
NCI-H23 lung = test system: NCI-H23 lung
NCI-H522 lung = test system: NCI-H522 lung
MDA-MB-435 = test system: MDA-MB-435
KM12 colon = test system: KM12 colon
OVCAR-4 ovarian = test system: OVCAR-4 ovarian
CAKI-1 renal = test system: CAKI-1 renal
CCRF-CEM leukemia = test system: CCRF-CEM leukemia
PC-3 prostate = test system: PC-3 prostate
TK-10 renal = test system: TK-10 renal
SK-MEL-2 melanoma = test system: SK-MEL-2 melanoma
MCF7 breast = test system: MCF7 breast
A549 NSCLC = test system: A549 NSCLC
K-562 leukemia = test system: K-562 leukemia
SNB-75 CNS = test system: SNB-75 CNS
SF-539 CNS = test system: SF-539 CNS
OVCAR-3 ovarian = test system: OVCAR-3 ovarian

For N#Cc1c(-c2ccc(Cl)cc2Cl)nc2[nH][nH]c(=S)n2c1=O, the TGI (HT29 colon) was > 100 µM, the TGI (HL-60(TB) leukemia) was > 100 µM and the TGI (MALME-3M melanoma) was > 100 µM. For the same compound, the TGI (MDA-MB-231 breast) was > 100 µM, the TGI (UO-31 renal) was > 100 µM and the TGI (EKVX NSCLC) was > 100 µM. For the same compound, the TGI (SF-295 CNS) was > 100 µM, the TGI (RPMI-8226 leukemia) was > 100 µM and the TGI (IGROV1 ovarian) was > 100 µM. The TGI (NCI/ADR-RES ovarian) was > 100 µM, the TGI (A498 renal) was > 100 µM and the TGI (HCC-2998 colon) was > 100 µM. For the same compound, the TGI (LOX IMVI melanoma) was > 100 µM, the TGI (MDA-N) was > 100 µM and the TGI (SK-OV-3 ovarian) was > 100 µM. The TGI (COLO 205 colon) was > 100 µM, the TGI (HS 578T breast) was > 100 µM and the TGI (SF-268 CNS) was > 100 µM. For the same compound, the TGI (786-0 renal) was > 100 µM, the TGI (HCT-15 colon) was > 100 µM and the TGI (HOP-92 NSCLC) was > 100 µM. For the same compound, the TGI (SR leukemia) was > 100 µM, the TGI (HCT-116 colon) was > 100 µM and the TGI (SK-MEL-5 melanoma) was > 100 µM. The TGI (NCI-H226 lung) was > 100 µM, the TGI (OVCAR-8 ovarian) was > 100 µM and the TGI (SN12C renal) was > 100 µM. For the same compound, the TGI (SW-620 colon) was > 100 µM, the TGI (U251 CNS) was > 100 µM and the TGI (M14 melanoma) was > 100 µM. The TGI (SNB-19 CNS) was > 100 µM, the TGI (HOP-62 NSCLC) was > 100 µM and the TGI (UACC-257 melanoma) was > 100 µM. For the same compound, the TGI (OVCAR-5 ovarian) was > 100 µM, the TGI (T-47D breast) was > 100 µM and the TGI (ACHN renal) was > 100 µM. For the same compound, the TGI (BT-549 breast) was > 100 µM, the TGI (DU-145 prostate) was > 100 µM and the TGI (SK-MEL-28 melanoma) was > 100 µM. The TGI (MOLT-4 leukemia) was > 100 µM, the TGI (UACC-62 melanoma) was > 100 µM and the TGI (NCI-H460 lung) was > 100 µM. The TGI (RXF 393 renal) was > 100 µM, the TGI (NCI-H23 lung) was > 100 µM and the TGI (NCI-H522 lung) was > 100 µM. The TGI (MDA-MB-435) was > 100 µM, the TGI (KM12 colon) was > 100 µM and the TGI (OVCAR-4 ovarian) was > 100 µM. The TGI (CAKI-1 renal) was > 100 µM, the TGI (CCRF-CEM leukemia) was > 100 µM and the TGI (PC-3 prostate) was > 100 µM. For the same compound, the TGI (TK-10 renal) was > 100 µM, the TGI (SK-MEL-2 melanoma) was > 100 µM and the TGI (MCF7 breast) was > 100 µM. The TGI (A549 NSCLC) was > 100 µM.
For O=C1CCCC1CN1CCCC1 (centres undefined), the TGI (HT29 colon) was > 59.7 µM, the TGI (HL-60(TB) leukemia) was 3.02 µM and the TGI (K-562 leukemia) was 1.18 µM. For the same compound, the TGI (MALME-3M melanoma) was 3.72 µM, the TGI (MDA-MB-231 breast) was 31.3 µM and the TGI (UO-31 renal) was 17.6 µM. The TGI (EKVX NSCLC) was 42.8 µM, the TGI (SF-295 CNS) was > 100 µM and the TGI (RPMI-8226 leukemia) was 6.8 µM. For the same compound, the TGI (IGROV1 ovarian) was 26.6 µM, the TGI (NCI/ADR-RES ovarian) was 37.9 µM and the TGI (A498 renal) was 45.1 µM. The TGI (SNB-75 CNS) was 31 µM, the TGI (HCC-2998 colon) was > 60.4 µM and the TGI (LOX IMVI melanoma) was 24.4 µM. The TGI (MDA-N) was 26.8 µM, the TGI (SK-OV-3 ovarian) was 27.7 µM and the TGI (SF-539 CNS) was 36.7 µM. For the same compound, the TGI (COLO 205 colon) was 8.74 µM, the TGI (HS 578T breast) was 55.7 µM and the TGI (SF-268 CNS) was 48.5 µM. It also gave a TGI (786-0 renal) of 14.9 µM, a TGI (HCT-15 colon) of 5.89 µM and a TGI (HOP-92 NSCLC) of 12.6 µM. For the same compound, the TGI (SR leukemia) was 1.16 µM, the TGI (HCT-116 colon) was 11.7 µM and the TGI (SK-MEL-5 melanoma) was 31.9 µM. The TGI (NCI-H226 lung) was > 100 µM, the TGI (OVCAR-8 ovarian) was 35.4 µM and the TGI (SN12C renal) was 32.6 µM. The TGI (SW-620 colon) was 11.3 µM, the TGI (U251 CNS) was > 56.8 µM and the TGI (M14 melanoma) was 6.74 µM. For the same compound, the TGI (SNB-19 CNS) was > 100 µM, the TGI (HOP-62 NSCLC) was > 100 µM and the TGI (UACC-257 melanoma) was 30.9 µM. The TGI (OVCAR-5 ovarian) was 32.4 µM, the TGI (T-47D breast) was 10.8 µM and the TGI (ACHN renal) was 15 µM. The TGI (BT-549 breast) was 3.09 µM, the TGI (DU-145 prostate) was > 66.4 µM and the TGI (SK-MEL-28 melanoma) was 27.7 µM. The TGI (MOLT-4 leukemia) was 1.07 µM, the TGI (UACC-62 melanoma) was 32.6 µM and the TGI (NCI-H460 lung) was > 58.4 µM. It also gave a TGI (OVCAR-3 ovarian) of 28.9 µM, a TGI (NCI-H23 lung) of 31.3 µM and a TGI (MDA-MB-435) of 26.3 µM. For the same compound, the TGI (KM12 colon) was 35 µM, the TGI (OVCAR-4 ovarian) was 4.32 µM and the TGI (CAKI-1 renal) was 0.773 µM. It also gave a TGI (CCRF-CEM leukemia) of 1.16 µM, a TGI (PC-3 prostate) of 35.2 µM and a TGI (TK-10 renal) of 25.1 µM. For the same compound, the TGI (SK-MEL-2 melanoma) was 18.5 µM, the TGI (MCF7 breast) was 8.53 µM and the TGI (A549 NSCLC) was > 100 µM.
Cc1nn(-c2ccccc2)c2c1C(c1ccc(Cl)cc1)NC(=S)N2 (centres undefined) was tested, and the TGI (HT29 colon) was > 100 µM, the TGI (HL-60(TB) leukemia) was 95.8 µM and the TGI (K-562 leukemia) was > 100 µM. The TGI (MALME-3M melanoma) was 93.9 µM, the TGI (MDA-MB-231 breast) was 51.2 µM and the TGI (UO-31 renal) was 28.8 µM. For the same compound, the TGI (EKVX NSCLC) was 90.8 µM, the TGI (SF-295 CNS) was 62.3 µM and the TGI (RPMI-8226 leukemia) was 48.7 µM. The TGI (IGROV1 ovarian) was 28.1 µM, the TGI (NCI/ADR-RES ovarian) was 68.5 µM and the TGI (A498 renal) was 67.1 µM. The TGI (SNB-75 CNS) was > 100 µM, the TGI (LOX IMVI melanoma) was 31.1 µM and the TGI (MDA-N) was 93.6 µM. It also gave a TGI (SK-OV-3 ovarian) of 59.8 µM, a TGI (SF-539 CNS) of 37.4 µM and a TGI (COLO 205 colon) of 31.2 µM. For the same compound, the TGI (HS 578T breast) was > 100 µM, the TGI (SF-268 CNS) was > 100 µM and the TGI (786-0 renal) was 36.8 µM. The TGI (HCT-15 colon) was 37.7 µM, the TGI (HOP-92 NSCLC) was 35.2 µM and the TGI (SR leukemia) was > 100 µM. The TGI (HCT-116 colon) was > 100 µM, the TGI (SK-MEL-5 melanoma) was 52.1 µM and the TGI (NCI-H226 lung) was > 100 µM. For the same compound, the TGI (OVCAR-8 ovarian) was 43.3 µM, the TGI (SN12C renal) was 47.5 µM and the TGI (SW-620 colon) was 71.1 µM. For the same compound, the TGI (U251 CNS) was 48.1 µM, the TGI (M14 melanoma) was > 100 µM and the TGI (SNB-19 CNS) was > 100 µM. The TGI (HOP-62 NSCLC) was 80.1 µM, the TGI (UACC-257 melanoma) was > 100 µM and the TGI (OVCAR-5 ovarian) was 89.4 µM. For the same compound, the TGI (T-47D breast) was > 100 µM, the TGI (ACHN renal) was 38.4 µM and the TGI (BT-549 breast) was 59.7 µM. The TGI (DU-145 prostate) was > 100 µM, the TGI (MOLT-4 leukemia) was > 100 µM and the TGI (UACC-62 melanoma) was 60.5 µM. The TGI (NCI-H460 lung) was 60 µM, the TGI (OVCAR-3 ovarian) was > 100 µM and the TGI (RXF 393 renal) was 35.3 µM. For the same compound, the TGI (NCI-H23 lung) was 44.5 µM, the TGI (NCI-H522 lung) was 37.2 µM and the TGI (MDA-MB-435) was 47.4 µM. For the same compound, the TGI (KM12 colon) was 64.8 µM, the TGI (OVCAR-4 ovarian) was > 100 µM and the TGI (CAKI-1 renal) was > 100 µM. It also gave a TGI (CCRF-CEM leukemia) of 72.8 µM, a TGI (PC-3 prostate) of 47.9 µM and a TGI (TK-10 renal) of 43.6 µM. The TGI (SK-MEL-2 melanoma) was 38.6 µM, the TGI (MCF7 breast) was > 100 µM and the TGI (A549 NSCLC) was 69.5 µM.
